Several values for one entry are separate records, joined by “and”; a condition that tells them apart may be missing. Equal values may be shown once. Inconclusive results and toxic doses are left out.
System: BDF1 mice, B16 melanoma ip, median survival T/C
Experiment: NCI In Vivo Anticancer Drug Screen. Data for tumor model B16 Melanoma (intraperitoneal) in B6D2F1 (BDF1) mice
Conditions: endpoint: median survival time, higher = longer survival
Method in brief: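 Transplantable tumor model; survival or tumor size measured; reported as T/C, treated over vehicle control.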

[1] = dose: 100.0 mg/kg/injection, schedule: Q04DX003 (ip), vehicle: saline
[2] = dose: 200.0 mg/kg/injection, schedule: Q04DX003 (ip), vehicle: saline
[3] = dose: 400.0 mg/kg/injection, schedule: Q04DX003 (ip), vehicle: saline
[4] = dose: 100.0 mg/kg/injection, schedule: Q01DX009 (ip), vehicle: Klucel (hydroxypropylcellulose) (HPC)
[5] = dose: 200.0 mg/kg/injection, schedule: Q01DX009 (ip), vehicle: Klucel (hydroxypropylcellulose) (HPC)
[6] = dose: 25.0 mg/kg/injection, schedule: Q01DX009 (ip), vehicle: saline with Tween-80
[7] = dose: 50.0 mg/kg/injection, schedule: Q01DX009 (ip), vehicle: saline with Tween-80
[8] = dose: 100.0 mg/kg/injection, schedule: Q01DX009 (ip), vehicle: saline with Tween-80
[9] = dose: 400.0 mg/kg/injection, schedule: Q01DX009 (ip), vehicle: Klucel (hydroxypropylcellulose) (HPC)
[10] = dose: 50.0 mg/kg/injection, schedule: Q01DX009 (ip), vehicle: Klucel (hydroxypropylcellulose) (HPC)
[11] = dose: 6.25 mg/kg/injection, schedule: Q01DX009 (ip), vehicle: saline
[12] = dose: 12.5 mg/kg/injection, schedule: Q01DX009 (ip), vehicle: saline
[13] = dose: 25.0 mg/kg/injection, schedule: Q01DX009 (ip), vehicle: saline
[14] = dose: 50.0 mg/kg/injection, schedule: Q01DX009 (ip), vehicle: saline
[15] = dose: 100.0 mg/kg/injection, schedule: Q01DX009 (ip), vehicle: saline

## CC(=O)[S][Pb]([c]1ccccc1)([c]1ccccc1)[c]1ccccc1
dose: 0.5 mg/kg/injection, schedule: Q01DX009 (ip), vehicle: saline with Tween-80
  T/C: 97 % of control
dose: 1.0 mg/kg/injection, schedule: Q01DX009 (ip), vehicle: saline with Tween-80
  T/C: 93 % of control
dose: 2.0 mg/kg/injection, schedule: Q01DX009 (ip), vehicle: saline with Tween-80
  T/C: 92 % of control
dose: 4.0 mg/kg/injection, schedule: Q01DX009 (ip), vehicle: saline with Tween-80
  T/C: 101 % of control

## O=CN(O)CC(=O)O
[1]
  T/C: 97 % of control
[2]
  T/C: 100 % of control
[3]
  T/C: 100 % of control

## COC(=O)C1C(O)C(C)C(=O)C(C)/C=C\C=C(C)C(=O)Nc2c(C)c(OC(C)=O)c3c(c2O)C(=O)C(C)=C2OCOC(=C23)C(C)=CC(C)(O)C(O)C(C)C1O (stereo not drawn)
[4]
  T/C: 89 % of control
[5]
  T/C: 89 % of control

## Cc1cccc2c(Nc3ccc(NS(C)(=O)=O)cc3)c3ccc([N+](=O)[O-])cc3nc12
dose: 8.0 mg/kg/injection, schedule: Q01DX009 (ip), vehicle: saline with Tween-80
  T/C: 155 % of control
dose: 12.0 mg/kg/injection, schedule: Q01DX009 (ip), vehicle: saline with Tween-80
  T/C: 194 % of control

## Oc1c(Br)cc(Br)cc1/C=N/N=C/c1cc(Br)cc(Br)c1O
[4]
  T/C: 90 % of control
[5]
  T/C: 87 % of control

## OC1CCCC2CCCNC12 (stereo not drawn) (tested in a mixture with another compound)
[6]
  T/C: 90 % of control
[7]
  T/C: 95 % of control
[8]
  T/C: 86 % of control

## Cc1cnc2c(=O)[nH]c(=O)[nH]c2n1
[4]
  T/C: 90 % of control
[9]
  T/C: 93 % of control

## O=C(OCOC(=O)c1ccccc1)c1ccccc1
[4]
  T/C: 120 % of control
[5]
  T/C: 106 % of control
[9]
  T/C: 114 % of control

## Cc1cc(C)cc(OC(=O)/C=C/C(=O)Oc2cc(C)cc(C)c2)c1
[6]
  T/C: 98 % of control
[7]
  T/C: 87 % of control
[8]
  T/C: 93 % of control

## NN1C(=O)c2ccc3c4c(ccc(c24)C1=O)CC3
dose: 50.0 mg/kg/injection, schedule: Q01DX009 (ip), vehicle: suspension in saline
  T/C: 104 % of control
dose: 100.0 mg/kg/injection, schedule: Q01DX009 (ip), vehicle: suspension in saline
  T/C: 102 % of control
dose: 200.0 mg/kg/injection, schedule: Q01DX009 (ip), vehicle: suspension in saline
  T/C: 97 % of control
dose: 400.0 mg/kg/injection, schedule: Q01DX009 (ip), vehicle: suspension in saline
  T/C: 102 % of control

## Nc1ncnc2c1ncn2Cc1ccccc1
[10]
  T/C: 89 % of control and 90 % of control
[4]
  T/C: 90 % of control and 100 % of control
[5]
  T/C: 86 % of control

## CSCCC(C#N)(CCN(C)C)c1ccccc1 (stereo not drawn)
[6]
  T/C: 113 % of control
[7]
  T/C: 107 % of control
[8]
  T/C: 111 % of control

## Cc1cc(Cl)ccc1NC(=O)Nc1ccc(Cl)c(Cl)c1
dose: 50.0 mg/kg/injection, schedule: Q04DX003 (ip), vehicle: Klucel (hydroxypropylcellulose) (HPC)
  T/C: 90 % of control
dose: 100.0 mg/kg/injection, schedule: Q04DX003 (ip), vehicle: Klucel (hydroxypropylcellulose) (HPC)
  T/C: 95 % of control

## O=C(Nc1nncs1)c1ccncc1
dose: 12.5 mg/kg/injection, schedule: Q01DX009 (ip), vehicle: saline with Tween-80
  T/C: 100 % of control
[6]
  T/C: 101 % of control
[7]
  T/C: 109 % of control
[8]
  T/C: 113 % of control
dose: 200.0 mg/kg/injection, schedule: Q01DX009 (ip), vehicle: saline with Tween-80
  T/C: 109 % of control

## CC(N)Cc1cn(C)c2ccccc12 (stereo not drawn)
[11]
  T/C: 122 % of control
[12]
  T/C: 105 % of control
[13]
  T/C: 102 % of control
[14]
  T/C: 105 % of control
[15]
  T/C: 88 % of control

## CC(C)(O)c1cccc2c(C(C)(C)O)cccc12
[4]
  T/C: 92 % of control
[5]
  T/C: 114 % of control
[9]
  T/C: 91 % of control

## C=C(C)C(=O)Nc1c(C)cccc1C
[10]
  T/C: 102 % of control
[4]
  T/C: 107 % of control
[5]
  T/C: 108 % of control

## CN(C)CC/C=C1\c2ccccc2CSc2ccccc21
dose: 3.12 mg/kg/injection, schedule: Q01DX009 (ip), vehicle: saline
  T/C: 90 % of control and 100 % of control
[11]
  T/C: 89 % of control and 100 % of control
[12]
  T/C: 97 % of control
[13]
  T/C: 104 % of control
[14]
  T/C: 95 % of control and 102 % of control

## O=C(O)C1CCCN1CCc1ccccc1 (stereo not drawn)
[1]
  T/C: 98 % of control
[2]
  T/C: 103 % of control
[3]
  T/C: 102 % of control

## Cc1cc(=O)[nH]c(N/N=C/c2ccccc2)n1
dose: 100.0 mg/kg/injection, schedule: Q04DX003 (ip), vehicle: gum acacia
  T/C: 93 % of control
dose: 200.0 mg/kg/injection, schedule: Q04DX003 (ip), vehicle: gum acacia
  T/C: 88 % of control
dose: 400.0 mg/kg/injection, schedule: Q04DX003 (ip), vehicle: gum acacia
  T/C: 88 % of control

## Cc1ccc2c(c1)C(=O)c1ccccc1S2(=O)=O
[4]
  T/C: 104 % of control
[5]
  T/C: 98 % of control
[9]
  T/C: 93 % of control

## CCCCN(c1ccccc1)c1ncnc2c1cnn2C
dose: 100.0 mg/kg/injection, schedule: Q04DX003 (ip), vehicle: saline with Tween-80
  T/C: 100 % of control
dose: 200.0 mg/kg/injection, schedule: Q04DX003 (ip), vehicle: saline with Tween-80
  T/C: 102 % of control
dose: 400.0 mg/kg/injection, schedule: Q04DX003 (ip), vehicle: saline with Tween-80
  T/C: 100 % of control

## CCN(CC)Cc1ccccn1
[13]
  T/C: 100 % of control
[14]
  T/C: 97 % of control
[15]
  T/C: 100 % of control

## [Cu+2].[NH-]CC(=O)O.[NH-]CC(=O)O
dose: 2.5 mg/kg/injection, schedule: Q01DX009 (ip), vehicle: saline
  T/C: 97 % of control
dose: 2.5 mg/kg/injection, schedule: Q04DX003 (ip), vehicle: saline with Tween-80
  T/C: 121 % of control
dose: 5.0 mg/kg/injection, schedule: Q01DX009 (ip), vehicle: saline
  T/C: 95 % of control and 102 % of control
dose: 5.0 mg/kg/injection, schedule: Q04DX003 (ip), vehicle: saline with Tween-80
  T/C: 115 % of control
dose: 10.0 mg/kg/injection, schedule: Q01DX009 (ip), vehicle: saline
  T/C: 95 % of control and 100 % of control
dose: 10.0 mg/kg/injection, schedule: Q04DX003 (ip), vehicle: saline with Tween-80
  T/C: 100 % of control
